These compounds were tested against T1, CRF1 receptors (Homo sapiens, UniProt P34998) (assay: CRF1 receptor radioligand binding assay ([125I]-oCRF competition, IMR-32 cell membranes)). Conditions: IMR-32 cell membranes, [125I]-oCRF 100 pM; read-out: Ki (CRF-1R).
T1 construct: endogenous in cells; host or cells: IMR-32 cells, transformed with 2.5 µM 5'-bromo-2'-deoxyuridine for 10 days; membrane preparation
T1 sequence (P34998 24-415): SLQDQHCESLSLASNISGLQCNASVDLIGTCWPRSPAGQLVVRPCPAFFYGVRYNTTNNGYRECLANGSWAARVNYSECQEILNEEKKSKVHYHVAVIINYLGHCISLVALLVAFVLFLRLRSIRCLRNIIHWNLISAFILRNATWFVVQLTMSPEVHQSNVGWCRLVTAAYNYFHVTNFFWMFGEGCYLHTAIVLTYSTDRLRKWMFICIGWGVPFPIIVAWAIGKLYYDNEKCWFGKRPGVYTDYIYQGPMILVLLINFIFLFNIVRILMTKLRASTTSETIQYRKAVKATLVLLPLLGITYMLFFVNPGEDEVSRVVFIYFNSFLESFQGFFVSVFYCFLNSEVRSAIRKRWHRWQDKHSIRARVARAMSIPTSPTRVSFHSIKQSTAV
Summary of the method: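 Buffer: Tris pH 7.2 with MgCl2, BSA, Triton X-100, aprotinin, leupeptin; reaction stopped with ice-cold wash and filtered. Nonspecific binding set with 10 μM oCRF.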

| SMILES | Ki |
| --- | --- |
| CCN(Cc1c(C(F)(F)F)nc2n(-c3ccc(C(C)C)cc3Br)c3ccccc3n12)CC1CC1 [Example 190, [8-(2-Bromo-4-isopropyl-phenyl)-2-trifluoromethyl-8H-1,3a,8-triaza-cyclopenta[α]inden-3-ylmethyl]-cyclopropylmethyl-ethyl-amine] | < 1 µM |
| CC(C)c1ccc(-n2c3ccccc3n3c(CN(CC4CC4)CC(F)(F)C(F)(F)F)c(C(F)(F)F)nc23)c(Br)c1 [Example 191, [8-(2-Bromo-4-isopropyl-phenyl)-2-trifluoromethyl-8H-1,3a,8-triaza-cyclopenta[α]inden-3-ylmethyl]-cyclopropylmethyl-(2,2,3,3,3-pentafluoro-propyl)-amine] | < 1 µM |
| C=CCN(CC=C)Cc1c(C(F)(F)F)nc2n(-c3ccc(C(C)C)cc3Br)c3ccccc3n12 [Example 192, Diallyl-[8-(2-bromo-4-isopropyl-phenyl)-2-trifluoromethyl-8H-1,3a,8-triaza-cyclopenta[α]inden-3-ylmethyl]-amine] | < 1 µM |
| CC(C)c1ccc(-n2c3ccccc3n3c(CN(CC4CCC4)CC(F)(F)F)c(C(F)(F)F)nc23)c(Br)c1 [Example 194, [8-(2-Bromo-4-isopropyl-phenyl)-2-trifluoromethyl-8H-1,3a,8-triaza-cyclopenta[α]inden-3-ylmethyl]-cyclobutylmethyl-(2,2,2-trifluoro-ethyl)-amine] | < 1 µM |
| CCCN(Cc1c(C(F)(F)F)nc2n(-c3ccc(C(C)C)cc3Br)c3ccccc3n12)CC1CCC1 [Example 195, [8-(2-Bromo-4-isopropyl-phenyl)-2-trifluoromethyl-8H-1,3a,8-triaza-cyclopenta[α]inden-3-ylmethyl]-cyclobutylmethyl-propyl-amine] | < 1 µM |
| C=CCN(CCC)Cc1c(C(F)(F)F)nc2n(-c3ccc(C(C)C)cc3Br)c3ccccc3n12 [Example 198, Allyl-[8-(2-bromo-4-isopropyl-phenyl)-2-trifluoromethyl-8H-1,3a,8-triaza-cyclopenta[α]inden-3-ylmethyl]-propyl-amine] | < 1 µM |
| CCCCN(CC)Cc1c(C(F)(F)F)nc2n(-c3ccc(C(C)C)cc3Br)c3ccccc3n12 [Example 203, [8-(2-Bromo-4-isopropyl-phenyl)-2-trifluoromethyl-8H-1,3a,8-triaza-cyclopenta[α]inden-3-ylmethyl]-butyl-ethyl-amine] | < 10 µM |
| CCCN(Cc1c(C(F)(F)F)nc2n(-c3ccc(C(C)C)cc3Br)c3ccccc3n12)CC(F)(F)C(F)(F)F [Example 205, [8-(2-Bromo-4-isopropyl-phenyl)-2-trifluoromethyl-8H-1,3a,8-triaza-cyclopenta[α]inden-3-ylmethyl]-(2,2,3,3,3-pentafluoro-propyl)-propyl-amine] | < 10 µM |
| CCCN(CCC)Cc1c(C(F)(F)F)nc2n(-c3ccc(C(C)C)cc3Br)c3ccccc3n12 [Example 206, [8-(2-Bromo-4-isopropyl-phenyl)-2-trifluoromethyl-8H-1,3a,8-triaza-cyclopenta[α]inden-3-ylmethyl]-dipropyl-amine] | < 10 µM |
| CCN(CCC1CC1)Cc1c(C(F)(F)F)nc2n(-c3ccc(C(C)C)cc3Br)c3ccccc3n12 [Example 207, [8-(2-Bromo-4-isopropyl-phenyl)-2-trifluoromethyl-8H-1,3a,8-triaza-cyclopenta[α]inden-3-ylmethyl]-(2-cyclopropyl-ethyl)-ethyl-amine] | < 10 µM |
| Cc1cc(C)c(-n2c3ncccc3n3c(CN(CC4CC4)CC(F)(F)F)c(C(F)(F)F)nc23)c(C)c1 [Example 210, Cyclopropylmethyl-(2,2,2-trifluoro-ethyl)-[2-trifluoromethyl-8-(2,4,6-trimethyl-phenyl)-8H-1,3a,7,8-tetraaza-cyclopenta[α]inden-3-ylmethyl]-amine] | < 0.1 µM |
| Cc1cc(C)c(-n2c3ncccc3n3c(CN(CC4CC4)CC(F)(F)C(F)(F)F)c(C(F)(F)F)nc23)c(C)c1 [Example 212, Cyclopropylmethyl-(2,2,3,3,3-pentafluoro-propyl)-[2-trifluoromethyl-8-(2,4,6-trimethyl-phenyl)-8H-1,3a,7,8-tetraaza-cylopenta[α]inden-3-ylmethyl]-amine] | < 0.1 µM |
| Cc1cc(C)c(-n2c3ncccc3n3c(CN(CCC(F)(F)F)CC4CC4)c(C(F)(F)F)nc23)c(C)c1 [Example 213, Cyclopropylmethyl-[2-trifluoromethyl-8-(2,4,6-trimethyl-phenyl)-8H-1,3a,7,8-tetraaza-cyclopenta[α]inden-3-ylmethyl]-(3,3,3-trifluoro-propyl)-amine] | < 0.1 µM |
| Cc1cc(C)c(-n2c3ncccc3n3c(CN(CC4CC4)CC4CC4)c(C(F)(F)F)nc23)c(C)c1 [Example 214, Bis-cyclopropylmethyl-[2-trifluoromethyl-8-(2,4,6-trimethyl-phenyl)-8H-1,3a,7,8-tetraaza-cyclopenta[α]inden-3-ylmethyl]-amine] | < 0.1 µM |
| CCCN(Cc1c(C(F)(F)F)nc2n(-c3c(C)cc(C)cc3C)c3ncccc3n12)CC1CCC1 [Example 215, Cyclobutylmethyl-propyl-[2-trifluoromethyl-8-(2,4,6-trimethyl-phenyl)-8H-1,3a,7,8-tetraaza-cyclopenta[α]inden-3-ylmethyl]-amine] | < 0.1 µM |
| Cc1cc(C)c(-n2c3ncccc3n3c(CN(CC4CCC4)CC(F)(F)F)c(C(F)(F)F)nc23)c(C)c1 [Example 216, Cyclobutylmethyl-(2,2,2-trifluoro-ethyl)-[2-trifluoromethyl-8-(2,4,6-trimethyl-phenyl)-8H-1,3a,7,8-tetraaza-cyclopenta[α]inden-3-ylmethyl]-amine] | < 0.1 µM |
| CCCN(CCc1ccccc1)Cc1c(C(F)(F)F)nc2n(-c3c(C)cc(C)cc3C)c3ncccc3n12 [Example 217, Phenethyl-propyl-[2-trifluoromethyl-8-(2,4,6-trimethyl-phenyl)-8H-1,3a,7,8-tetraaza-cyclopenta[α]inden-3-ylmethyl]-amine] | < 0.1 µM |

Next, values leading:

| Ki | SMILES |
| --- | --- |
| < 1 µM | CCCN(CCc1ccccc1)Cc1c(C(F)(F)F)nc2n(-c3ccc(C(C)C)cc3Br)c3ccccc3n12 [Example 193, [8-(2-Bromo-4-isopropyl-phenyl)-2-trifluoromethyl-8H-1,3a,8-triaza-cyclopenta[α]inden-3-ylmethyl]-phenethyl-propyl-amine] |
| < 1 µM | CCN(CCc1ccccc1)Cc1c(C(F)(F)F)nc2n(-c3ccc(C(C)C)cc3Br)c3ccccc3n12 [Example 196, [8-(2-Bromo-4-isopropyl-phenyl)-2-trifluoromethyl-8H-1,3a,8-triaza-cyclopenta[α]inden-3-ylmethyl]-ethyl-phenethyl-amine] |
| < 1 µM | CCCN(CCC(F)(F)F)Cc1c(C(F)(F)F)nc2n(-c3ccc(C(C)C)cc3Br)c3ccccc3n12 [Example 197, [8-(2-Bromo-4-isopropyl-phenyl)-2-trifluoromethyl-8H-1,3a,8-triaza-cyclopenta[α]inden-3-ylmethyl]-propyl-(3,3,3-trifluoro-propyl)-amine] |
| < 10 µM | CC(C)c1ccc(-n2c3ccccc3n3c(CN(CCC(F)(F)F)Cc4ccc(F)cc4)c(C(F)(F)F)nc23)c(Br)c1 [Example 199, [8-(2-Bromo-4-isopropyl-phenyl)-2-trifluoromethyl-8H-1,3a,8-triaza-cyclopenta[α]inden-3-ylmethyl]-(4-fluoro-benzyl)-(3,3,3-trifluoro-propyl)-amine] |
| < 10 µM | CCCN(Cc1c(C(F)(F)F)nc2n(-c3ccc(C(C)C)cc3Br)c3ccccc3n12)CC(F)(F)F [Example 200, [8-(2-Bromo-4-isopropyl-phenyl)-2-trifluoromethyl-8H-1,3a,8-triaza-cyclopenta[α]inden-3-ylmethyl]-propyl-(2,2,2-trifluoro-ethyl)-amine] |
| < 10 µM | CC(C)c1ccc(-n2c3ccccc3n3c(CN(CCc4ccccc4)CC(F)(F)F)c(C(F)(F)F)nc23)c(Br)c1 [Example 201, [8-(2-Bromo-4-isopropyl-phenyl)-2-trifluoromethyl-8H-1,3a,8-triaza-cyclopenta[α]inden-3-ylmethyl]-phenethyl-(2,2,2-trifluoro-ethyl)-amine] |
| < 10 µM | CC(C)c1ccc(-n2c3ccccc3n3c(CN(CCC(F)(F)F)Cc4ccccc4)c(C(F)(F)F)nc23)c(Br)c1 [Example 202, Benzyl-[8-(2-bromo-4-isopropyl-phenyl)-2-trifluoromethyl-8H-1,3a,8-triaza-cyclopenta[α]inden-3-ylmethyl]-(3,3,3-trifluoro-propyl)-amine] |
| < 10 µM | CC(C)c1ccc(-n2c3ccccc3n3c(CN(CCC4CC4)CC(F)(F)F)c(C(F)(F)F)nc23)c(Br)c1 [Example 204, [8-(2-Bromo-4-isopropyl-phenyl)-2-trifluoromethyl-8H-1,3a,8-triaza-cyclopenta[α]inden-3-ylmethyl]-(2-cyclopropyl-ethyl)-(2,2,2-trifluoro-ethyl)-amine] |
| < 10 µM | CCN(Cc1ccccc1)Cc1c(C(F)(F)F)nc2n(-c3ccc(C(C)C)cc3Br)c3ccccc3n12 [Example 208, Benzyl-[8-(2-bromo-4-isopropyl-phenyl)-2-trifluoromethyl-8H-1,3a,8-triaza-cyclopenta[α]inden-3-ylmethyl]-ethyl-amine] |
| < 10 µM | CCCN(Cc1ccccc1)Cc1c(C(F)(F)F)nc2n(-c3ccc(C(C)C)cc3Br)c3ccccc3n12 [Example 209, Benzyl-[8-(2-bromo-4-isopropyl-phenyl)-2-trifluoromethyl-8H-1,3a,8-triaza-cyclopenta[α]inden-3-ylmethyl]-propyl-amine] |

Reference: patent US7125990B2, “Imidazolyl derivatives as corticotropin releasing factor inhibitors” (Bristol-Myers Squibb COmpany, priority 2001, dated 2006)
